Assay results reported in ChEMBL document CHEMBL2429761, “Discovery of ML314, a Brain Penetrant Non-Peptidic β-Arrestin Biased Agonist of the Neurotensin NTR1 Receptor” (ACS Med Chem Lett, 2013).
≈ marks a conversion by molar mass, not a printed value.

How the values were obtained:
[1] = biological target: T1, Neurotensin receptor type 1 (Homo sapiens, UniProt P30989); test: Agonist activity at NTR1 (unknown origin) expressed in CHO cells assessed as stimulation of calcium flux; type: functional, cell-based
T1 sequence (P30989 whole entry): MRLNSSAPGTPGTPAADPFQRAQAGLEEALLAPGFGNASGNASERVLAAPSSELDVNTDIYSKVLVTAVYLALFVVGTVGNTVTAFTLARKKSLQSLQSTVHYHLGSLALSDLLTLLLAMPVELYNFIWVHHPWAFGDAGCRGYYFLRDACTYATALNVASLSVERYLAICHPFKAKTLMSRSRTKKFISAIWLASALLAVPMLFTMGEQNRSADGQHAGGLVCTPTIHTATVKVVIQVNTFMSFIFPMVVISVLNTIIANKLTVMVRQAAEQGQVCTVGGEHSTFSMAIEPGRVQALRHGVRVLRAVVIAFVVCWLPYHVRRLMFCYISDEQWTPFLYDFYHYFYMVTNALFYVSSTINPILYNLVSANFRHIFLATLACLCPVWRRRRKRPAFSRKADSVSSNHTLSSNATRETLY

[2] = Hepatotoxicity in human Fa2N-4 cells after 24 hrs by luminescence assay; type: toxicity, cell-based; details: fa2n-4, 24 h, read-out: LC50 (the source's name)
Plasma [3] = test: Plasma protein binding in mouse at 10 uM after 4 hrs by LC-MS/MS analysis; type: ADME, cell-free
Plasma [4] = test: Plasma protein binding in mouse at 1 uM after 4 hrs by LC-MS/MS analysis; type: ADME, cell-free
[5] = Kinetic solubility of the compound in PBS buffer at 250 uM after 18 hrs at pH 7.4; type: physicochemical; details: read-out: Kinetic_solubility
Plasma [6] = test: Metabolic stability in human plasma assessed as compound remaining at 1 uM after 3 hrs by LC-MS/MS analysis; type: ADME, cell-free
[7] = Kinetic solubility of the compound in pION buffer at 250 uM after 18 hrs at pH 5; type: physicochemical; details: read-out: Kinetic_solubility
[8] = Kinetic solubility of the compound in pION buffer at 250 uM after 18 hrs at pH 7.4; type: physicochemical; details: read-out: Kinetic_solubility
Mu-type opioid receptor [9] = biological target: T2, Mu-type opioid receptor (Homo sapiens, UniProt P35372); test: Binding affinity to mu opioid receptor (unknown origin) at 10 uM relative to control
T2 sequence (P35372 whole entry): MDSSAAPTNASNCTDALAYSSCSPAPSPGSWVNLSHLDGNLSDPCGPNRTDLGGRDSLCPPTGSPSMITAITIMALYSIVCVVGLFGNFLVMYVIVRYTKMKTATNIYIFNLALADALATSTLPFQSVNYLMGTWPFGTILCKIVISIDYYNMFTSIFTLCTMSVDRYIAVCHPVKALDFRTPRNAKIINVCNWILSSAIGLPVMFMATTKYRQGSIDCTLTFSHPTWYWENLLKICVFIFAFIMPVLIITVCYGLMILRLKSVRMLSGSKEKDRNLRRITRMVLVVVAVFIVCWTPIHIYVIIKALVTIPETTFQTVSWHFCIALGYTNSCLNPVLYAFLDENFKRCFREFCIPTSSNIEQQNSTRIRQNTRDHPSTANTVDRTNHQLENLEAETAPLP

[10] = Effective permeability of the compound at 50 uM after 30 mins at donor pH 5 and acceptor pH 7.4 by PAMPA; type: ADME; details: pH 5, 0.5 h
[11] = tested on: Mycobacterium tuberculosis; test: Antibacterial activity against Mycobacterium tuberculosis H37Rv assessed as growth inhibition; type: functional
[12] = Drug uptake in C57BL/6J mouse brain at 30 mg/kg, ip after 1 hr by LC-MS/MS analysis; type: ADME, organism-based; set-up: dose 30 mg/kg, route intraperitoneal; details: read-out: Drug uptake
[13] = biological target: Neurotensin receptor type 2 (Homo sapiens, UniProt O95665); test: Agonist activity at NTR2 (unknown origin) expressed in human U2OS cells coexpressing beta-arrestin by GFP reporter gene assay; type: cell-based
Neurotensin receptor type 2, sequence (O95665 whole entry): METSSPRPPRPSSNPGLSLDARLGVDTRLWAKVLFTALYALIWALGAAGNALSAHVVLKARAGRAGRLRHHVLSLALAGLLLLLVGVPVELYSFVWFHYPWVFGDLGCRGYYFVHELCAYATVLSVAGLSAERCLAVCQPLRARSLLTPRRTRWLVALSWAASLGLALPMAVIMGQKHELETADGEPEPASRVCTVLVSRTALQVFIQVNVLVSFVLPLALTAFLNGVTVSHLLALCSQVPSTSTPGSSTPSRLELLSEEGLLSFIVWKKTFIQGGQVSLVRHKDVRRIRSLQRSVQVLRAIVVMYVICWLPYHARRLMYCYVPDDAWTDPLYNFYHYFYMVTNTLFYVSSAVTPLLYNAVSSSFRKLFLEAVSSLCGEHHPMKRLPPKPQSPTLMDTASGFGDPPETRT

[14] = biological target: T1, Neurotensin receptor type 1; test: Agonist activity at NTR1 (unknown origin) expressed in CHOK1 cells by beta-arrestin assay relative to neurotensin (8 to 13); type: cell-based; details: CHO-K1
Liver microsomes = test: Metabolic stability in human liver microsomes assessed as compound remaining at 1 to 10 uM after 1 hr by LC-MS/MS analysis; type: ADME, Microsome
Mu-type opioid receptor [15] = biological target: T2, Mu-type opioid receptor; test: Binding affinity to mu opioid receptor (unknown origin)
[16] = Effective permeability of the compound at 50 uM after 30 mins at donor pH 6.2 and acceptor pH 7.4 by PAMPA; type: ADME; details: pH 6.2, 0.5 h
Liver = test: Metabolic stability in mouse liver microsomes assessed as compound remaining at 1 to 10 uM after 1 hr by LC-MS/MS analysis; type: ADME, Microsome
[17] = biological target: T1, Neurotensin receptor type 1; details: U2OS
Description: Agonist activity at NTR1 (unknown origin) expressed in human U2OS cells coexpressing beta-arrestin by GFP reporter gene assay

[18] = biological target: T3, 5-hydroxytryptamine receptor 3A (Homo sapiens, UniProt P46098); test: Binding affinity to 5-HT3 receptor (unknown origin)
T3 sequence (P46098 whole entry): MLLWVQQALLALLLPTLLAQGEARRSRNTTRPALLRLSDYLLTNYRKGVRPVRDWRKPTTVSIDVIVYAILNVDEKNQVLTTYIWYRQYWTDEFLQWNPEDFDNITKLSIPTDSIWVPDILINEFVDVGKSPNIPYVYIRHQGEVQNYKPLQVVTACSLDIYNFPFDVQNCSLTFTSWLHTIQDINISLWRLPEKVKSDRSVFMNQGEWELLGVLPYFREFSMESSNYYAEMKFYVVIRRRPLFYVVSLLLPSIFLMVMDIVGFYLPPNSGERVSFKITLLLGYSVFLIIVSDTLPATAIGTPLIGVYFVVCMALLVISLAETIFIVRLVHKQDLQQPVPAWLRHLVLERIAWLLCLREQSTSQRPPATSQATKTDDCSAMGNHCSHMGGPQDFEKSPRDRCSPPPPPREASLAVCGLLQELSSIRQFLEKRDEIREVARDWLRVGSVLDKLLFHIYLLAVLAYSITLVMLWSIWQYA

Plasma [19] = test: Plasma protein binding in human at 10 uM after 4 hrs by LC-MS/MS analysis; type: ADME, cell-free
[20] = biological target: 5-hydroxytryptamine receptor 7 (Homo sapiens, UniProt P34969); test: Binding affinity to 5-HT7 receptor (unknown origin)
5-hydroxytryptamine receptor 7, sequence (P34969 whole entry): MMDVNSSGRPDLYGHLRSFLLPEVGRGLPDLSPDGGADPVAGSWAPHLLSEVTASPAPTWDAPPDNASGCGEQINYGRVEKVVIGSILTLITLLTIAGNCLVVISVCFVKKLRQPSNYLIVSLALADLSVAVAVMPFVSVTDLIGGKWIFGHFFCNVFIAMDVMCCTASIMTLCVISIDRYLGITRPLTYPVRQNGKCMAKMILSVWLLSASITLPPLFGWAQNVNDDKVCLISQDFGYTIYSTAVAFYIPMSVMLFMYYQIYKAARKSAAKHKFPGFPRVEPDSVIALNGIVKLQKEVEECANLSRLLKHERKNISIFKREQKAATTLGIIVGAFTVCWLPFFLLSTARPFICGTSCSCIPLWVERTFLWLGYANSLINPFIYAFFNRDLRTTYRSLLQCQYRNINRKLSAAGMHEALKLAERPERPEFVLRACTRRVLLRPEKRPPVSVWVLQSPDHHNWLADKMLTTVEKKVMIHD

[21] = biological target: T4, Alpha-2A adrenergic receptor (Homo sapiens) (UniProt P08913); test: Binding affinity to adrenergic alpha2A receptor (unknown origin) at 10 uM relative to control
T4 sequence (whole entry): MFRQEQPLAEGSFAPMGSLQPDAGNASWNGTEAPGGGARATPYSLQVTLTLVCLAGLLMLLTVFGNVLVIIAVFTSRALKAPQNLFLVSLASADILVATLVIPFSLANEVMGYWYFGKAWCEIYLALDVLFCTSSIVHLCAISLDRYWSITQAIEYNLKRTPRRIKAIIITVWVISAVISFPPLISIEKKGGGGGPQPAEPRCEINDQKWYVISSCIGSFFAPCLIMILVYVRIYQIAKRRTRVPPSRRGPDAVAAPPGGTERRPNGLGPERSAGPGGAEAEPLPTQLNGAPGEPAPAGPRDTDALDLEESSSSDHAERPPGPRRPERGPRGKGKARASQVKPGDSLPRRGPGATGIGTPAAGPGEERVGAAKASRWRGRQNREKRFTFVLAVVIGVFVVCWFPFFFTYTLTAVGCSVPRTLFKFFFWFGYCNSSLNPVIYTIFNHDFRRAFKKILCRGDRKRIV

[22] = Kinetic solubility of the compound in pION buffer at 250 uM after 18 hrs at pH 6.2; type: physicochemical; details: read-out: Kinetic_solubility
Plasma [23] = test: Plasma protein binding in human at 1 uM after 4 hrs by LC-MS/MS analysis; type: ADME, cell-free
[24] = biological target: T5, Alpha-1A adrenergic receptor (Homo sapiens) (UniProt P35348); test: Binding affinity to adrenergic alpha1A receptor (unknown origin) at 10 uM relative to control
T5 sequence (whole entry): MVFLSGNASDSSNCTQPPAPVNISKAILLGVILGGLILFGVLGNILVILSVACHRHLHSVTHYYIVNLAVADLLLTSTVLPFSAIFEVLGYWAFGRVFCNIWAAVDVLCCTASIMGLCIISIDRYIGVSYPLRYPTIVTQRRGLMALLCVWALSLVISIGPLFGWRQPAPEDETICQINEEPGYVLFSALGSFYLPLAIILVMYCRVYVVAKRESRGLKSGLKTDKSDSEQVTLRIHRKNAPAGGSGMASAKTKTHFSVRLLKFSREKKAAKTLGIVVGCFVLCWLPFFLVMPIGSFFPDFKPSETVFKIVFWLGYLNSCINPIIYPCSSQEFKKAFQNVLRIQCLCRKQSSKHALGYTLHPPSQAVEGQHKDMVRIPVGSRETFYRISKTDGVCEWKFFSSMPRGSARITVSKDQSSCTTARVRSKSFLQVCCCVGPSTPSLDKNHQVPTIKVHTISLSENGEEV

Translocator protein = Translocator protein (Homo sapiens, UniProt P30536); test: Binding affinity to PBR receptor (unknown origin)
Translocator protein, sequence (P30536 whole entry): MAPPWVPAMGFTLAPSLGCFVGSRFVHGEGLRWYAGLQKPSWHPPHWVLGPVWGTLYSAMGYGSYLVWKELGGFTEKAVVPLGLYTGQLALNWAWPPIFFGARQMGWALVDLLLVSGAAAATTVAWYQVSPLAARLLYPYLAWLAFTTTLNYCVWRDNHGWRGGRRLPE

COc1cc2nc(C3CC3)nc(N3CCN(c4ccccc4OC)CC3)c2cc1OC
EC50 [1]: > 80000 nM
CC50 [2]: 29600 nM
PPB (Plasma [3]): 98.9%
PPB (Plasma [4]): 99.7%
solubility kinetic at 18 h, 250 µM [5]: 1.1 µM (≈ 0.463 µg/mL)
Stability (Plasma [6]): 100%
solubility kinetic at 18 h, 250 µM [7]: > 297 µM
solubility kinetic at 18 h, 250 µM [8]: 1.2 µM (≈ 0.505 µg/mL)
Activity (Mu-type opioid receptor [9]): 86%
Peff [10]: 1160 ×10⁻⁶ cm/s
GI [11]: 3.9 µM
concentration at 1 h [12]: 1510 ng/mL
EC50 [13]: > 80000 nM
Emax [14]: 86.6%
Stability (Liver microsomes): 1.4%
Ki (Mu-type opioid receptor [15]): 1540 nM
Peff [16]: 2140 ×10⁻⁶ cm/s
Stability (Liver): 0.2%
EC100 [17]: 10 µM
Ki [18]: 1000 nM
PPB (Plasma [19]): 99.2%
Ki [20]: 930 nM
Activity [21]: 63%
solubility kinetic at 18 h, 250 µM [22]: 21.4 µM (≈ 9 µg/mL)
PPB (Plasma [23]): 99.5%
Activity [24]: 63%
Ki (Translocator protein): 2540 nM
